The values that follow come from paper PMC3144920, “Peptide Substrates for Rho-Associated Kinase 2 (Rho-Kinase 2/ROCK2)” (PLoS ONE, 2011).

pKi: −log10 of the molar value. Entries after “also recorded” stand apart in the source; their conditions may differ. Where a SMILES comes first, the peptide text is derived from it. Bounds are passed on as bounds.

What all share (assay type): biochemical
The target of test [1] is T1, ROCK2 (Homo sapiens, UniProt O75116).
T1 construct: purchased Carna Biosciences, Kobe, Japan
T1 sequence (O75116 1-553 limits assumed): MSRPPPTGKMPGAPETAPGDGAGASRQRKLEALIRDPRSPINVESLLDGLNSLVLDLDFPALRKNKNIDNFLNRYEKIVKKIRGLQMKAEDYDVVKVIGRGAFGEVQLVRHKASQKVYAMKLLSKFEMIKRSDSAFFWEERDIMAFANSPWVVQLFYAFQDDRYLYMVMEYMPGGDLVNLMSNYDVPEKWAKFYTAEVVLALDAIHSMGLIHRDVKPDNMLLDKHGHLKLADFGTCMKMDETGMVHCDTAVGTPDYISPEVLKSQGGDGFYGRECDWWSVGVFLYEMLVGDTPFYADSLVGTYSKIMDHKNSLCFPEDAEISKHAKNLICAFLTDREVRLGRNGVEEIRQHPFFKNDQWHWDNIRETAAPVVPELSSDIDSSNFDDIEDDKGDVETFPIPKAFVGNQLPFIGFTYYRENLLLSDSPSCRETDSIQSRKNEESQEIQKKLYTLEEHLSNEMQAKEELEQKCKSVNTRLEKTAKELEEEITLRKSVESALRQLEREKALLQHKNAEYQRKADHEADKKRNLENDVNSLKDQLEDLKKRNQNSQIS
The experiment in a line: Inhibition of ROCK2 phosphorylation of S6K substrate peptide by inhibitor peptides. The following applies: competitive; S6K peptide (KRRRLASLR) as substrate, 1.25 µg/mL ROCK2, 100 µM ATP, MOPS pH 7.2; Dixon plot and Lineweaver–Burk plot. The protocol: The phosphorylatable amino acid (threonine) of five peptide substrates (R4, R22, R133, R134, and R135) was replaced with alanine. […] Ki values were obtained from the Dixon plot and Lineweaver–Burk plot. Inhibitor peptides were added into 25 µL of buffer (5 mM MOPS at pH 7.2, 2.5 mM beta-glycerophosphate, 1 mM EGTA, 4 mM MgCl2, 0.05 mM DTT, and 100 µM ATP) containing S6K substrate peptide and 1.25 µg/mL ROCK2.

Test [2] deals with T2, PKA (Bos taurus, UniProt P00517).
T2 construct: purchased Promega, Madison, WI, USA
The experiment in a line: Radiolabel assay using [γ-32P]ATP: phosphorylation of peptide substrates by PKA. The conditions noted are these: 1.6 µg/mL PKA, 100 µM ATP, HEPES pH 7.4, 10 min at 25°C; Fig. 3, in words. How it is done: (§1) The kinase activity of recombinant ROCK2 (Carna Biosciences, Kobe, Japan), ERK1 (Upstate, Millipore, Temecula, CA, USA), PKA (Promega, Madison, WI, USA), and PKCα (Sigma–Aldrich, St. Louis, MO, USA) for the peptide substrates was determined by measuring ^32P transfer from [γ-^32P]ATP into substrate peptides according to manufacturer recommendations. Phosphorylation reactions by ROCK2 were carried out in 25 µL of buffer (5 mM 3-(N-morpholino)propanesulfonic acid (MOPS) at pH 7.2, 2.5 mM beta-glycerophosphate, 1 mM ethylene glycol tetra-acetic acid (EGTA), 4 mM MgCl2, 0.05 mM dithiothreitol (DTT), and 100 µM adenosine triphosphate (ATP)) containing peptides and 1.25 µg/ml ROCK2. For PKCα, phosphorylation reactions were carried out in 25 µL of buffer (20 mM HEPES at pH 7.4, 10 mM MgCl2, 1 mM CaCl2, 100 µM ATP, 40 µg/mL phosphatidylserine, and 20 µg/mL diacylglycerol) containing peptides and 0.5 µg/mL PKCα. Phosphorylation reactions by PKA were carried out in 25 µL of buffer (50 mM HEPES at pH 7.4, 1 mM CaCl2, 10 mM MgCl2, 100 µM ATP) containing peptides and 1.6 µg/mL PKA. For ERK1, phosphorylation reactions were carried out in 25 µL of buffer (25 mM Tris-HCl at pH 7.5, 20 µM EGTA, 15 mM magnesium acetate, and 100 µM ATP) containing peptides and 0.5 µg/mL ERK1. For each experimental condition, values for control reactions lacking substrate peptides were subtracted as blanks. The assay mixture was incubated for 10 min at 25°C, and the reaction terminated by the addition of 5 µL of 30% trichloroacetic acid (TCA). The reaction mixture (24 µL) was spotted onto P-81 phosphocellulose membranes. The membranes were washed thrice with 5% TCA, dried with acetone, and the radioactivity of each membrane determined by liquid scintillation counting. Kinetic analyses of enzyme activity were determined using the Lineweaver–Burk plot.

Test [3] has as its target T3, ERK1 (Homo sapiens, UniProt P27361).
T3 construct: purchased Upstate, Millipore, Temecula, CA, USA
The test can be described thus: Radiolabel assay using [γ-32P]ATP: phosphorylation of peptide substrates by ERK1. The conditions noted are these: 0.5 µg/mL ERK1, 100 µM ATP, Tris-HCl pH 7.5, 10 min at 25°C; Fig. 3, in words. The protocol: as §1

Test [4] has as its target T4, PKCα (Homo sapiens, UniProt P17252).
T4 construct: purchased Sigma–Aldrich, St. Louis, MO, USA
The experiment in a line: Radiolabel assay using [γ-32P]ATP: phosphorylation of peptide substrates by PKCα. The following applies: Fig. 3, in words; for CPM for PKCα: 0.5 µg/mL PKCα, 100 µM ATP, HEPES pH 7.4, 10 min at 25°C. How it is done: as §1

In test [5] the target is T1, ROCK2. The test can be described thus: Kinetic analysis of peptide substrate phosphorylation by ROCK2 (Lineweaver–Burk plot). The protocol: as §1, with “plot. […]” for “plot.”

T3 sequence (P27361 whole entry, species assumed): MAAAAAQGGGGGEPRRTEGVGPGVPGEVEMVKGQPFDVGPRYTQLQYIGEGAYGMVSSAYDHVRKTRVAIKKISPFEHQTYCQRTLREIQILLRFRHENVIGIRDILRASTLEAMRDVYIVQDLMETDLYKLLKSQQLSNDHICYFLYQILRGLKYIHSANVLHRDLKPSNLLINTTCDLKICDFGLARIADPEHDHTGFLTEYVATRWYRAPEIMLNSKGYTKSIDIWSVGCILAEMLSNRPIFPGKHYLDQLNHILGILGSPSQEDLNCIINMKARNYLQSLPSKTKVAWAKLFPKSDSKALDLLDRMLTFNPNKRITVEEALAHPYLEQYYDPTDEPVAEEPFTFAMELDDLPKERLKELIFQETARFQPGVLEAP

Compound `CC[C@H](C)[C@H](NC(=O)[C@H](CCC(N)=O)NC(=O)[C@H](CCCNC(=N)N)NC(=O)[C@H](CC(C)C)NC(=O)[C@H](C)NC(=O)[C@H](CCCCN)NC(=O)[C@H](Cc1ccc(O)cc1)NC(=O)[C@H](CCCCN)NC(=O)[C@H](C)NC(=O)[C@@H](N)CCCNC(=N)N)C(=O)N[C@@H](CCCNC(=N)N)C(=O)O` [R4 with alanine instead of threonine] (H-RAKYKALRQIR-OH) showed a pKi in test [1] of 4.06.

Regarding `CSCC[C@H](NC(=O)[C@H](Cc1c[nH]c2ccccc12)NC(=O)[C@H](Cc1ccc(O)cc1)NC(=O)[C@@H]1CCCN1C(=O)[C@H](CC(N)=O)NC(=O)CNC(=O)[C@@H](NC(=O)[C@@H](NC(=O)[C@H](C)NC(=O)[C@H](Cc1ccc(O)cc1)NC(=O)[C@H](CCCNC(=N)N)NC(=O)[C@H](CCCCN)NC(=O)[C@H](CCCCN)NC(=O)[C@H](CCCNC(=N)N)NC(=O)[C@H](C)NC(=O)[C@@H]1CCCN1C(=O)[C@@H](N)CCCCN)C(C)C)C(C)C)C(=O)O` [R22 with alanine instead of threonine] (H-KPARKKRYAVVGNPYWM-OH), in test [1], the pKi is 4.94.

Take `CSCC[C@H](NC(=O)[C@H](Cc1c[nH]c2ccccc12)NC(=O)[C@H](Cc1ccc(O)cc1)NC(=O)[C@@H]1CCCN1C(=O)[C@H](CC(N)=O)NC(=O)CNC(=O)[C@@H](NC(=O)[C@@H](NC(=O)[C@H](C)NC(=O)[C@H](Cc1ccc(O)cc1)NC(=O)[C@H](CCCNC(=N)N)NC(=O)[C@H](CCCCN)NC(=O)[C@H](CCCCN)NC(=O)[C@H](CCCNC(=N)N)NC(=O)[C@H](CC(=O)O)NC(=O)[C@H](CO)NC(=O)[C@@H](N)CCCCN)C(C)C)C(C)C)C(=O)O` [R133 with alanine instead of threonine] (H-KSDRKKRYAVVGNPYWM-OH; N-terminus and C-terminus assumed): in test [1], the pKi is < 4.00.

In test [1], `CSCC[C@H](NC(=O)[C@H](Cc1c[nH]c2ccccc12)NC(=O)[C@H](Cc1ccc(O)cc1)NC(=O)[C@@H]1CCCN1C(=O)[C@H](CC(N)=O)NC(=O)CNC(=O)[C@@H](NC(=O)[C@@H](NC(=O)[C@H](C)NC(=O)[C@H](Cc1ccc(O)cc1)NC(=O)[C@H](CCCNC(=N)N)NC(=O)[C@H](CCCCN)NC(=O)[C@H](CCCCN)NC(=O)[C@H](CCCNC(=N)N)NC(=O)[C@H](C)NC(=O)[C@H](CO)NC(=O)[C@@H](N)CCCCN)C(C)C)C(C)C)C(=O)O` [R134 with alanine instead of threonine] (H-KSARKKRYAVVGNPYWM-OH) had a pKi of 4.53.

With `CSCC[C@H](NC(=O)[C@H](Cc1c[nH]c2ccccc12)NC(=O)[C@H](Cc1ccc(O)cc1)NC(=O)[C@@H]1CCCN1C(=O)[C@H](CC(N)=O)NC(=O)CNC(=O)[C@@H](NC(=O)[C@@H](NC(=O)[C@H](C)NC(=O)[C@H](Cc1ccc(O)cc1)NC(=O)[C@H](CCCNC(=N)N)NC(=O)[C@H](CCCCN)NC(=O)[C@H](CCCCN)NC(=O)[C@H](CCCNC(=N)N)NC(=O)[C@H](CC(=O)O)NC(=O)[C@H](C)NC(=O)[C@@H](N)CCCCN)C(C)C)C(C)C)C(=O)O` [R135 with alanine instead of threonine] (H-KADRKKRYAVVGNPYWM-OH; N-terminus and C-terminus assumed), in test [1], the pKi was < 4.00.

“KADRKKRYTVVGNPYWM [R135, peptide substrate for ROCK2 …, origin LIMK2]”: the “CPM for ROCK2 compared with PKA” value in test [2] is “higher CPM levels for ROCK2 than the other enzymes”. Moreover, in test [3], the “CPM for ROCK2 compared with ERK1” value is reported as “higher CPM levels for ROCK2 than the other enzymes”. Further, the “CPM for ROCK2 compared with PKCα” value in test [4] is reported as “much higher CPM for ROCK2 than that of PKCα; also recorded: higher CPM levels for ROCK2 than the other enzymes”. In test [5], the Michaelis constant (Km) amounted to 3.2 µM and the Vmax turned out to be 8.6 pmol/min/mg.

As for “KPARKKRYTVVGNPYWM [R22, peptide substrate for ROCK2 …, origin LIM-kinase 1 (LIMK1)]”, in test [2], the “CPM for ROCK2 compared with PKA” value is recorded as “higher CPM levels for ROCK2 than the other enzymes”. For the same compound, the “CPM for ROCK2 compared with ERK1” value in test [3] is on record as “higher CPM levels for ROCK2 than the other enzymes”. For the same compound, the “CPM for ROCK2 compared with PKCα” value in test [4] was “much higher CPM for ROCK2 than that of PKCα; also recorded: higher CPM levels for ROCK2 than the other enzymes”. Also, in test [5], the Km was found to be 1.9 µM and the Vmax was found to be 10.3 pmol/min/mg.

On to “KRRRLASLR [S6K, synthetic peptide S6K (…) used as a control for ROCK2, reference compound]”, for which, in test [5], the Km amounted to 3.1 µM and the Vmax was determined as 23.1 pmol/min/mg.

For “KSARKKRYTVVGNPYWM [R134, peptide substrate for ROCK2 …, origin LIMK2]”, in test [4], the “CPM for PKCα” value is reported as “high CPM”. In test [5], the Michaelis constant (Km) amounted to 3.3 µM and the Vmax is reported as 14.9 pmol/min/mg.

On to “KSDRKKRYTVVGNPYWM [R133, peptide substrate for ROCK2 …, origin LIMK2]”, for which, in test [2], the “CPM for ROCK2 compared with PKA” value is reported as “higher CPM levels for ROCK2 than the other enzymes”. In test [3], the “CPM for ROCK2 compared with ERK1” value is given as “higher CPM levels for ROCK2 than the other enzymes”. Moreover, the “CPM for ROCK2 compared with PKCα” value in test [4] is on record as “much higher CPM for ROCK2 than that of PKCα; also recorded: higher CPM levels for ROCK2 than the other enzymes”. Also, in test [5], the Km is 3.6 µM and the Vmax was found to be 10.0 pmol/min/mg.

For the compound “RAKYKTLRQIR [R4, peptide substrate for ROCK2 …, origin ERM family (Ezrin/ Radixin/ Moesin)]”, the “CPM for PKCα” value in test [4] is reported as “high CPM”. Moreover, in test [5], the Km is 1.7 µM and the Vmax was found to be 14.2 pmol/min/mg.
